According to patent US20220257541A1, “Lacosamide for the Treatment of ADD/ADHD” (priority 2019, published 2022):

Legend:
[1] = test system: patient with ADHD of the combined type; assay: Case Study 1: lacosamide mono-therapy in a child with ADHD; format: in vivo, human
Experimental: We present the case study of a child suffering from ADHD (with no comorbidity such as epilepsy or bipolar disorder). The child was treated with a lacosamide mono-therapy for several weeks based on the conventional treatment regime for lacosamide in children (for the treatment of epilepsy and/or bipolar disorder).
This case study describes the case of a person (“the patient”) with ADHD of the combined type. The patient had not previously been treated with any psychotropic drugs.
Before initiating the selected drug treatment, the patient underwent a full medical examination. In addition, reports from their school teachers as well as parents were collected.
Lacosamide was administered to the patient following the approved treatment regimen for lacosamide (Vimpat®) in epileptic children from 4 years of age.
The treatment was delivered twice a day and went on for >8 weeks.

[2] = test system: children and adolescents with ADHD syndrome; assay: Case Study 3: Test of Nonverbal Intelligence (TONI-2); format: in vivo, human
Experimental: These tests offered an objective element that contributed to the establishment of the diagnosis.
Neuropsychological evaluation was repeated after six months on medication, at the end of the study. These evaluations were guided by trained neuropsychologists. Four different evaluations were conducted: Continuous Performance Test (CPT)1, STROOP-P test, Wisconsin Card sorting Test and the Non Verbal Intelligence Test.
The patients were assessed using the Test of Nonverbal Intelligence (TONI-2), which is a language-free measure of abstract problem-solving ability.

[3] = test system: children and adolescents with ADHD syndrome; assay: Case Study 3: IQ test prior to and after treatment; format: in vivo, human; details: for IQ: Post-treatment, patient
Experimental: IQ was tested prior to and after treatment.

[4] = test system: children and adolescents with ADHD syndrome; assay: Case Study 3: pedagogical evaluation (literary and mathematical skills); format: in vivo, human
Experimental: In order to evaluate the academic level of the patients and later evolution while being treated, we established indicators of literary and mathematical skills of the patients in line with the official assessment of the Ministry of Education of the Dominican Republic.
Academic evolution was assessed 90 days after initiating the treatment and at the end of the 6th month.
In order to measure academic evolution we used different parameters, which are: Spanish language, Reading, Writing, Comprehension of their own reading, Mathematics, Reasoning, argumentation capacities and Problem solving.
Independently, we established at each evaluation the attained level of alphabetisation and the acquisition of literary skills every patient had, as shown in Table 3.
We categorised the sample following the protocol of the local Ministry of Education's Evaluation tool, which will qualify students following the consideration of “Non Acquired”, “Towards Acquisition” or “Acquired” levels.

[5] = test system: voltage-gated sodium channels; details: cited from earlier work
[6] = test system: AMPA, kainate, NMDA, GABAA, GABAB, dopaminergic, serotonergic, adrenergic, muscarinic or cannabinoid receptors; details: cited from earlier work
[7] = test system: potassium or calcium currents; details: cited from earlier work
[8] = test system: reuptake of norepinephrine, dopamine, and serotonin; details: cited from earlier work
[9] = end of the study, 17% prior to treatment

SMILES: COC[C@@H](NC(C)=O)C(=O)NCc1ccccc1 [lacosamide, (2R)-2-(acetylamino)-N-benzyl-3-methoxypropanamide]
- tolerance of the maximum dose administered ([1]; 250 mg/day): no signs of intolerance or inadequacy
- tolerance of the dose ([1]; Day 8, 25 mg every 12 hours (50 mg/day)): tolerated the dose well
- behaviour, sleeping activity, cognitive functionality ([1]; Day 8, 50 mg/day): No improvement
- adverse reaction observed ([1]; Day 8, 50 mg/day, ceased after the first few days of treatment): sporadic headaches
- quality of sleep or cognitive functionality ([1]; Day 15, 100 mg/day): No improvement
- quality of sleep ([1]; Day 23, 75 mg every 12 hours (150 mg/day)): Improvement
- cognitive functionality ([1]; Day 23, 150 mg/day): improved
- lethargic napping in the afternoon ([1]; Day 32, after increase to 200 mg/day, symptoms subsequently became milder): initially replaced with agitation and hyperactivity
- behaviour at school and home ([1]; Day 36, 200 mg/day): consistent improvement
- aggression or irritability at home ([1]; Day 49, 125 mg every 12 hours (250 mg/day)): did not show any aggression or irritability
- conversation in consultation ([1]; Day 49, 250 mg/day): able to sustain longer logical conversations, at least partially
- dysphasia ([1]; Day 63, 250 mg/day): gradual improvement
- hyperactivity ([1]; Day 63, 250 mg/day): no signs of hyperactivity
- quality of sleep ([1]; Day 63, 250 mg/day): dramatically improved
- dose after which sleep pattern and vegetative functions began to stabilize ([1]; administered as two separate 75 mg doses): 150 mg/day
- dose at which higher functions were stabilized ([1]; administered as two separate 100 mg doses): ~200 mg/day
- ADHD symptomatology ([1]; child, mono-therapy for several weeks): regressed dramatically
- secondary reactions or effects ([1]; twice a day for >8 weeks): No secondary reactions or effects were observed
- non-verbal reasoning: number of subjects who reached the high average level ([2]; after six months on medication): doubling
- patients scoring high average in TONI-2 ([2]; end of the tested period, from 16.7%): 33.3%
- patients scoring average in TONI-2 ([2]; end of the tested period, from 50%): 58.3%
- patients who maintained previous IQ levels ([3]; 12 patients tested): 23%
- patients who raised their IQ values ([3]; 12 patients tested): 77%
- patients with a lowering of the IQ value ([3]; 12 patients tested): In none of the patients
- IQ ([3]; 2nd High School, Pre-treatment CI-80): CI-90
- IQ ([3]; 2nd High School, Pre-treatment CI-99): CI-112
- IQ ([3]; 2nd Primary, Pre-treatment CI-94): CI-106
- IQ ([3]; 3rd Primary, Pre-treatment CI-82): CI-82
- IQ ([3]; 3rd Primary, Pre-treatment CI-117): CI-117
- IQ ([3]; 5th Primary, Pre-treatment CI-81): CI-91
- IQ ([3]; 5th Primary, Pre-treatment CI-91): CI-95
- IQ ([3]; 5th Primary, Pre-treatment CI-95): CI-104
- IQ ([3]; 5th Primary, Pre-treatment CI-111): CI-111
- IQ ([3]; 6th Primary, Pre-treatment CI-93): CI-95
- IQ ([3]; 7th Primary, Pre-treatment CI-87): CI-91
- IQ ([3]; Bachelor, Pre-treatment CI-108): CI-114
- IQ progression on average ([3]; subgroup of 33% of the patients): four
- IQ progression average ([3]; subgroup of 40% of the patients): around 11±2 points
- patients in the subgroup with the smaller IQ progression ([3]; subgroup that progressed on average by four points): 33%
- patients in the subgroup with the larger IQ progression ([3]; subgroup with progression average of around 11±2 points): 40%
- global IQ increase ([3]; sum for 12 patients tested): 60 points
- pedagogic evaluation, all tested competencies ([4]; 6-month treatment, tests pre-treatment, after 3 and 6 months): gradual progression
- patients who completely acquired Reasoning and Solving Problems (Mathematics) ([4]; after 3 months of treatment, initial 25%): 50%
- subjects at the intermediate level, Towards Acquisition ([4]; end of the study): 25%
- change in patients who acquired the reading and writing skills ([4]; end of the study versus first evaluation): +60%
- patients able to understand what they were reading (Comprehensive Reading) [4, 9]: 83%
- patients who completely acquired the reading and writing skills [4, 9]: 75%
- subjects at the non-acquired level (Read, Write, Comprehensive Reading) ([4]; end of the study, 83% prior to treatment): 0%
- proportion of the sample Alphabetised (alphabetical level) ([4]; maintained until the end of the study, 25% at the beginning): 75%
- fast inactivation of voltage-gated sodium channels [5]: without affecting
- slow inactivation of voltage-gated sodium channels [5]: enhances
- effect on AMPA, kainate, NMDA, GABAA, GABAB, dopaminergic, serotonergic, adrenergic, muscarinic or cannabinoid receptors [6]: does not affect
- block of potassium or calcium currents [7]: does not block
- modulation of reuptake of norepinephrine, dopamine, and serotonin [8]: does not modulate
